{
  "source": "patent US20080280862A1",
  "about": "“Methods, compositions, and kits for the treatment of pain” (priority 2007, published 2008)",
  "key": {"TNFα": {"system": "TNFα", "assay": "TNFα secretion by human white blood cells stimulated with PMA/ionomycin, synergy score", "assay_type": "cell-based", "details": "PBMC stimulated with PMA/Ionomycin", "outline": "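Diluted human white blood cells stimulated with 10 ng/mL PMA and 750 ng/mL ionomycin (final) plus compound combinations at various concentrations, 16-18 h at 37 °C. Secreted TNFα measured by sandwich luminescent ELISA; synergy score is the dilution-weighted volume between measured and Loewe additive inhibition surfaces.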"}, "[1]": {"system": "carrageenan-induced pain model in rats", "assay": "Carrageenan pain model, mechanical allodynia by Von Frey filaments", "assay_type": "in vivo, Sprague-Dawley rats", "details": "for Mean AUC ± SEM: AUC from 20 minutes through 120 minutes following carrageenan injection; for Mean change from baseline ± SEM: Experiment Two; for mean change from baseline: Table 4", "outline": "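Male Sprague-Dawley rats dosed IP once daily on days −2 and −1 and 30 min before intraplantar 0.1 ml 2% carrageenan. Von Frey withdrawal force (g) measured at 0–120 min post-injection; values are mean change from pre-dose baseline across five timepoints. Synergy by median-effect model and combination index.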"}},
  "data": [
    {"smiles": "CNCCC=C1c2ccccc2CCc2ccccc21", "note": "[Nortriptyline]", "values": [
      {"measurement": "Synergy Score based on TNF-α inhibition", "setting": "TNFα; combination with Betamethasone", "value": 0.83},
      {"measurement": "Synergy Score based on TNF-α inhibition", "setting": "TNFα; combination with Budesonide", "value": 1.6},
      {"measurement": "Synergy Score based on TNF-α inhibition", "setting": "TNFα; combination with Dexamethasone", "value": 1.7},
      {"measurement": "Synergy Score based on TNF-α inhibition", "setting": "TNFα; combination with Hydrocortisone", "value": 0.72},
      {"measurement": "Synergy Score based on TNF-α inhibition", "setting": "TNFα; combination with Prednisolone", "value": 1.1},
      {"measurement": "Synergy Score based on TNF-α inhibition", "setting": "TNFα; combination with Triamcinolone", "value": 0.88},
      {"measurement": "Mean AUC ± SEM", "setting": "[1]; 1 mg/Kg", "value": "1895 ± 547.01"},
      {"measurement": "Mean AUC ± SEM", "setting": "[1]; 3 mg/Kg", "value": "3082 ± 275.81"},
      {"measurement": "Mean change from baseline ± SEM", "setting": "[1]; first set of rows, 1 mg/kg, 20 minutes", "value": "16.94 ± 7.35", "unit": "g"},
      {"measurement": "Mean change from baseline ± SEM", "setting": "[1]; first set of rows, 1 mg/kg, 40 minutes", "value": "17.01 ± 7.37", "unit": "g"},
      {"measurement": "Mean change from baseline ± SEM", "setting": "[1]; first set of rows, 1 mg/kg, 60 minutes", "value": "22.36 ± 4.36", "unit": "g"},
      {"measurement": "Mean change from baseline ± SEM", "setting": "[1]; first set of rows, 1 mg/kg, 80 minutes", "value": "29.59 ± 4.80", "unit": "g"},
      {"measurement": "Mean change from baseline ± SEM", "setting": "[1]; first set of rows, 1 mg/kg, 120 minutes", "value": "37.64 ± 5.20", "unit": "g"},
      {"measurement": "Mean change from baseline ± SEM", "setting": "[1]; first set of rows, 3 mg/kg, 20 minutes", "value": "5.83 ± 6.21", "unit": "g"},
      {"measurement": "Mean change from baseline ± SEM", "setting": "[1]; first set of rows, 3 mg/kg, 40 minutes", "value": "5.83 ± 6.21", "unit": "g"},
      {"measurement": "Mean change from baseline ± SEM", "setting": "[1]; first set of rows, 3 mg/kg, 60 minutes", "value": "12.87 ± 5.09", "unit": "g"},
      {"measurement": "Mean change from baseline ± SEM", "setting": "[1]; first set of rows, 3 mg/kg, 80 minutes", "value": "15.84 ± 5.10", "unit": "g"},
      {"measurement": "Mean change from baseline ± SEM", "setting": "[1]; first set of rows, 3 mg/kg, 120 minutes", "value": "35.98 ± 4.09", "unit": "g"},
      {"measurement": "Mean change from baseline ± SEM", "setting": "[1]; second set of rows, 1 mg/kg, 20 minutes", "value": "17.00 ± 6.43", "unit": "g"},
      {"measurement": "Mean change from baseline ± SEM", "setting": "[1]; second set of rows, 1 mg/kg, 40 minutes", "value": "-4.25 ± 4.25", "unit": "g"},
      {"measurement": "Mean change from baseline ± SEM", "setting": "[1]; second set of rows, 1 mg/kg, 60 minutes", "value": "32.50 ± 4.96", "unit": "g"},
      {"measurement": "Mean change from baseline ± SEM", "setting": "[1]; second set of rows, 1 mg/kg, 80 minutes", "value": "29.75 ± 4.25", "unit": "g"},
      {"measurement": "Mean change from baseline ± SEM", "setting": "[1]; second set of rows, 1 mg/kg, 120 minutes", "value": "33.88 ± 5.21", "unit": "g"},
      {"measurement": "Mean change from baseline ± SEM", "setting": "[1]; second set of rows, 3 mg/kg, 20 minutes", "value": "17.00 ± 6.43", "unit": "g"},
      {"measurement": "Mean change from baseline ± SEM", "setting": "[1]; second set of rows, 3 mg/kg, 40 minutes", "value": "0.00 ± 6.43", "unit": "g"},
      {"measurement": "Mean change from baseline ± SEM", "setting": "[1]; second set of rows, 3 mg/kg, 60 minutes", "value": "17.00 ± 6.43", "unit": "g"},
      {"measurement": "Mean change from baseline ± SEM", "setting": "[1]; second set of rows, 3 mg/kg, 80 minutes", "value": "0.00 ± 0.00", "unit": "g"},
      {"measurement": "Mean change from baseline ± SEM", "setting": "[1]; second set of rows, 3 mg/kg, 120 minutes", "value": "0.00 ± 0.00", "unit": "g"},
      {"measurement": "mean change from baseline", "setting": "[1]; 1 mg/kg ip, 20 minutes post carrageenan", "value": "25.50 ± 7.90", "unit": "grams"},
      {"measurement": "mean change from baseline", "setting": "[1]; 1 mg/kg ip, 40 minutes post carrageenan", "value": "−4.70 ± 8.13", "unit": "grams"},
      {"measurement": "mean change from baseline", "setting": "[1]; 1 mg/kg ip, 60 minutes post carrageenan", "value": "−59.30 ± 10.6", "unit": "grams"},
      {"measurement": "mean change from baseline", "setting": "[1]; 1 mg/kg ip, 80 minutes post carrageenan", "value": "−99.70 ± 13.75", "unit": "grams"},
      {"measurement": "mean change from baseline", "setting": "[1]; 1 mg/kg ip, 120 minutes post carrageenan", "value": "−146.90 ± 19.62", "unit": "grams"},
      {"measurement": "mean change from baseline", "setting": "[1]; 3 mg/kg ip, 20 minutes post carrageenan", "value": "7.40 ± 10.10", "unit": "grams"},
      {"measurement": "mean change from baseline", "setting": "[1]; 3 mg/kg ip, 40 minutes post carrageenan", "value": "−49.20 ± 11.54", "unit": "grams"},
      {"measurement": "mean change from baseline", "setting": "[1]; 3 mg/kg ip, 60 minutes post carrageenan", "value": "−109.20 ± 11.54", "unit": "grams"},
      {"measurement": "mean change from baseline", "setting": "[1]; 3 mg/kg ip, 80 minutes post carrageenan", "value": "−169.20 ± 11.54", "unit": "grams"},
      {"measurement": "mean change from baseline", "setting": "[1]; 3 mg/kg ip, 120 minutes post carrageenan", "value": "−205.40 ± 11.35", "unit": "grams"},
      {"measurement": "mean change from baseline", "setting": "[1]; 10 mg/kg ip, 20 minutes post carrageenan", "value": "−4.00 ± 8.20", "unit": "grams"},
      {"measurement": "mean change from baseline", "setting": "[1]; 10 mg/kg ip, 40 minutes post carrageenan", "value": "−68.60 ± 10.46", "unit": "grams"},
      {"measurement": "mean change from baseline", "setting": "[1]; 10 mg/kg ip, 60 minutes post carrageenan", "value": "−112.80 ± 13.51", "unit": "grams"},
      {"measurement": "mean change from baseline", "setting": "[1]; 10 mg/kg ip, 80 minutes post carrageenan", "value": "−157.00 ± 17.21", "unit": "grams"},
      {"measurement": "mean change from baseline", "setting": "[1]; 10 mg/kg ip, 120 minutes post carrageenan", "value": "−185.80 ± 20.18", "unit": "grams"},
      {"measurement": "mean change from baseline", "setting": "[1]; 20 mg/kg ip, 20 minutes post carrageenan", "value": "−17.60 ± 5.89", "unit": "grams"},
      {"measurement": "mean change from baseline", "setting": "[1]; 20 mg/kg ip, 40 minutes post carrageenan", "value": "−74.20 ± 7.72", "unit": "grams"},
      {"measurement": "mean change from baseline", "setting": "[1]; 20 mg/kg ip, 60 minutes post carrageenan", "value": "−130.80 ± 10.37", "unit": "grams"},
      {"measurement": "mean change from baseline", "setting": "[1]; 20 mg/kg ip, 80 minutes post carrageenan", "value": "−190.80 ± 10.37", "unit": "grams"},
      {"measurement": "mean change from baseline", "setting": "[1]; 20 mg/kg ip, 120 minutes post carrageenan", "value": "−255.40 ± 14.97", "unit": "grams"},
      {"measurement": "decrease of median-effect dose (Dm) after co-administration compared to the monotherapy", "setting": "[1]; median-effect model, prednisolone/nortriptyline 1:3 fixed ratios", "value": 4, "unit": "fold"}
    ]}
  ]
}
